Measured values published in US20060099235A1, “Medical devices and compositions useful for treating or inhibiting restenosis” (Medtronic Vascular, Inc., priority 2004, published 2006).

Key:
[1] = system: human coronary artery smooth muscle cells (hCASMCs); experiment: Microscopic evaluation of cell morphology after 3-day exposure; assay type: cell-based; conditions: hCASMC, 3 days
Protocol: (§1) Leptomycin B's anti-proliferative efficacy was tested at different concentrations (0.01 nM, 0.1 nM, 1.0 nM, 10.0 nM, 100 nM and 1000 nM) using a three day exposure to hCASMC. The same experiment was performed twice at two separate times to ascertain leptomycin's effect on cell proliferation using a cell viability assay, and the cell phenotype through a qualitative observation of cell morphology following the 3-day exposure to leptomycin B.
The evaluation of cell phenotype on drug-treated wells was performed by optical microscopy observation and capture of representative images at 200× (total magnification). Microscopic evaluation and pictures were performed before the proliferation assay was done on the 24-well drug-treated plate.
Representative microphotographs (See FIGS. 8-14) of cells exposed to different concentrations of leptomycin B for a period of three days. HCASMCs cultured in the absence of the drug (FIG. 8) reached a ˜90% confluency with the expected healthy phenotype at three days (duration of the assay), providing an adequate control.

[2] = system: human coronary artery smooth muscle cells (hCASMCs); experiment: CellTiter-Glo Luminescent Cell Viability (proliferation) assay, 3-day exposure; assay type: cell-based
Protocol: as §1
The CellTiter-Glo® Luminescent Cell Viability Assay (Promega Corporation, Madison, Wis.) is a method of determining the number of viable cells in culture based on the quantitation of ATP, as an indicator of metabolically active cells (proliferating). A single reagent is added to cells directly in culture, this reagent lyses the cells and provides the luciferase enzyme that reacts with the liberated ATP to create a luminescent signal.
Twenty-four well plates were seeded with hCASMC at 5×10^3 cells per well (n=3) using methods know to those skilled in the art of cell culture. For example and not intended as a limitation: Materials • 1. Human coronary smooth muscles cells (HCASMC) are obtained from Clonetics, a division of Cambrex, Inc. • 2. HCASMC basal media, supplied by Clonetics and supplemented with fetal bovine serum, insulin, hFGF-B (human fibroblast growth factor) hEGF (human epidermal growth factor). • 3. Leptomycin B was purchased from LC Laboratories. Wobum, Mass., USA catalogue number L-6100 • 4. Absolute methanol • 5. Twenty-four well polystyrene tissue culture plates
Dilutions of the drug were made in serum-free cell culture media from the stock solution. A volume of 100 μL of each dilution was added to designated wells. […]
The CellTiter-Glo® Luminescent Cell Viability Assay (Promega Corporation, Madison, Wis.) was performed to assess percent viability. The CellTiter-Glo® Luminescent Cell Viability Assay is a homogeneous method of determining the number of viable cells in culture based on quantitation of the ATP present, which signals the presence of metabolically active cells. […]

`CCC(=C/[C@H](C)C/C=C/C(C)=C/[C@@H](C)C(=O)[C@@H](C)[C@H](O)[C@@H](C)C/C(C)=C/C(=O)O)/C=C/[C@@H]1OC(=O)C=C[C@@H]1C` [leptomycin B, 2,10,12,16,18-nonadecapentaenoic acid] was tested, and the “microscopic signs of cytotoxicity” value ([1]; 0.01-1000 nM) was “No microscopic signs of cytotoxicity”, the level of confluence ([1]; 200x optical microscopy, control ~90% confluency) was “decreased level of confluence” and the “effect on human coronary artery smooth muscle cell proliferation” value ([2]; 0.01-1000 nM, two trials (FIGS. 6 and 7)) was “inhibitory effect”. For the same compound, the “concentration showing inhibitory effect on hCASMC proliferation in vitro” value ([2]; concentrations as low as) was ≥ 1 nM and the “nature of the effect (cytostatic vs cytotoxic)” value ([2]; hCASMC) was “predominantly cytostatic rather than cytotoxic”.
